According to patent US20040087633A1, “Methylidene oxazolidinone compound and preparation method thereof” (Korea Institute of Science and Technology, priority 2002, published 2004):
≈ marks a conversion by molar mass, not a printed value.

Experiments:
Test in all cases: Anti-microbial activity test in vitro (agar dilution MIC)
E. faecium C6301 = format: cell-based; conditions: E. faecium C6301; Agar Dilution method, Mueller Hinton Agar, 18 hours at 37° C.
Method in brief: (§1)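 MIC in μg/ml, scored by eye after 18 h at 37 °C on Mueller Hinton agar plates carrying twofold stepwise compound dilutions.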

S. pyogenes C6012 = format: cell-based; conditions: S. pyogenes C6012; Agar Dilution method, Mueller Hinton Agar, 18 hours at 37° C.
Method in brief: as §1

E. faecium C2252 = format: cell-based; conditions: E. faecium C2252; Agar Dilution method, Mueller Hinton Agar, 18 hours at 37° C.
Method in brief: as §1

E. faecalis ATCC29212 = format: cell-based; conditions: E. faecalis ATCC29212; Agar Dilution method, Mueller Hinton Agar, 18 hours at 37° C.
Method in brief: as §1

E. faecalis C6291 = format: cell-based; conditions: E. faecalis C6291; Agar Dilution method, Mueller Hinton Agar, 18 hours at 37° C.
Method in brief: as §1

S. pyogenes C6003 = format: cell-based; conditions: S. pyogenes C6003; Agar Dilution method, Mueller Hinton Agar, 18 hours at 37° C.
Method in brief: as §1

E. faecalis C6288 = format: cell-based; conditions: E. faecalis C6288; Agar Dilution method, Mueller Hinton Agar, 18 hours at 37° C.
Method in brief: as §1

S. pyogenes ATCC8668 = format: cell-based; conditions: S. pyogenes ATCC8668; Agar Dilution method, Mueller Hinton Agar, 18 hours at 37° C.
Method in brief: as §1

S. epidermidis ATCC12228 = format: cell-based; conditions: S. epidermidis ATCC12228; Agar Dilution method, Mueller Hinton Agar, 18 hours at 37° C.
Method in brief: as §1

S. aureus ATCC 29213 = format: cell-based; conditions: Agar Dilution method, Mueller Hinton Agar, 18 hours at 37° C.
Method in brief: as §1

S. epidermidis C2235 = format: cell-based; conditions: S. epidermidis C2235; Agar Dilution method, Mueller Hinton Agar, 18 hours at 37° C.
Method in brief: as §1

S. epidermidis C2230 = format: cell-based; conditions: S. epidermidis C2230; Agar Dilution method, Mueller Hinton Agar, 18 hours at 37° C.
Method in brief: as §1

VRE C6488 = format: cell-based, Enterococcus faecium; conditions: VRE C6488; Agar Dilution method, Mueller Hinton Agar, 18 hours at 37° C.
Method in brief: as §1

VRE C6487 = format: cell-based, Enterococcus faecium; conditions: VRE C6487; Agar Dilution method, Mueller Hinton Agar, 18 hours at 37° C.
Method in brief: as §1

MRSA C2207 = format: cell-based, Staphylococcus aureus; conditions: MRSA C2207; Agar Dilution method, Mueller Hinton Agar, 18 hours at 37° C.
Method in brief: as §1

MSSA C7142 = format: cell-based, Staphylococcus aureus; conditions: MSSA C7142; Agar Dilution method, Mueller Hinton Agar, 18 hours at 37° C.
Method in brief: as §1

MSSA C2214 = format: cell-based, Staphylococcus aureus; conditions: MSSA C2214; Agar Dilution method, Mueller Hinton Agar, 18 hours at 37° C.
Method in brief: as §1

MRSA C6068 = format: cell-based, Staphylococcus aureus; conditions: MRSA C6068; Agar Dilution method, Mueller Hinton Agar, 18 hours at 37° C.
Method in brief: as §1

CRSA C1062 = format: cell-based, Staphylococcus aureus; conditions: CRSA C1062; Agar Dilution method, Mueller Hinton Agar, 18 hours at 37° C.
Method in brief: as §1

CRSA C6043 = format: cell-based, Staphylococcus aureus; conditions: CRSA C6043; Agar Dilution method, Mueller Hinton Agar, 18 hours at 37° C.
Method in brief: as §1

MRSA C5100 = format: cell-based, Staphylococcus aureus; conditions: MRSA C5100; Agar Dilution method, Mueller Hinton Agar, 18 hours at 37° C.
Method in brief: as §1

Compound	Minimum inhibition concentration (MIC) (E. faecium C6301)	Minimum inhibition concentration (MIC) (S. pyogenes C6012)	Minimum inhibition concentration (MIC) (E. faecium C2252)	Minimum inhibition concentration (MIC) (E. faecalis ATCC29212)	Minimum inhibition concentration (MIC) (E. faecalis C6291)	Minimum inhibition concentration (MIC) (S. pyogenes C6003)	Minimum inhibition concentration (MIC) (E. faecalis C6288)	Minimum inhibition concentration (MIC) (S. pyogenes ATCC8668)	Minimum inhibition concentration (MIC) (S. epidermidis ATCC12228)	Minimum inhibition concentration (MIC) (S. aureus ATCC 29213)	Minimum inhibition concentration (MIC) (S. epidermidis C2235)	Minimum inhibition concentration (MIC) (S. epidermidis C2230)	Minimum inhibition concentration (MIC) (VRE C6488)	Minimum inhibition concentration (MIC) (VRE C6487)	Minimum inhibition concentration (MIC) (MRSA C2207)	Minimum inhibition concentration (MIC) (MSSA C7142)	Minimum inhibition concentration (MIC) (MSSA C2214)	Minimum inhibition concentration (MIC) (MRSA C6068)	Minimum inhibition concentration (MIC) (CRSA C1062)	Minimum inhibition concentration (MIC) (CRSA C6043)	also measured
CC(=O)NC[C@H]1CN(c2ccc(N3CCC(=CC(C)OC(=O)CCl)CC3)c(F)c2)C(=O)O1 (stereo partly drawn) [Compound 24, N-[[(5S)-3-[3-fluoro-4-(4-(2-(chloroacetoxy)propylidene)-piperidinyl)-phenyl]-2-oxo-5-oxazolidinyl]methyl]acetamide]	8 µg/mL (≈ 17.1 µM)	2 µg/mL (≈ 4.27 µM)	16 µg/mL (≈ 34.2 µM)	8 µg/mL (≈ 17.1 µM)	16 µg/mL (≈ 34.2 µM)	8 µg/mL (≈ 17.1 µM)	16 µg/mL (≈ 34.2 µM)	2 µg/mL (≈ 4.27 µM)	2 µg/mL (≈ 4.27 µM)	16 µg/mL (≈ 34.2 µM)	8 µg/mL (≈ 17.1 µM)	8 µg/mL (≈ 17.1 µM)	4 µg/mL (≈ 8.55 µM)	4 µg/mL (≈ 8.55 µM)	16 µg/mL (≈ 34.2 µM)	16 µg/mL (≈ 34.2 µM)	16 µg/mL (≈ 34.2 µM)	8 µg/mL (≈ 17.1 µM)	8 µg/mL (≈ 17.1 µM)	16 µg/mL (≈ 34.2 µM)	Minimum inhibition concentration (MIC) (MRSA C5100): 16 µg/mL (≈ 34.2 µM)
CC(=O)NC[C@H]1CN(c2ccc(N3CCC(=CC(C)O)CC3)c(F)c2)C(=O)O1 (stereo partly drawn) [Compound 22, N-[[(5S)-3-[3-fluoro-4-(4-(2-hydroxypropylidene)-piperidinyl)-phenyl]-2-oxo-5-oxazolidinyl]methyl]acetamide]	4 µg/mL (≈ 10.2 µM)	2 µg/mL (≈ 5.11 µM)	4 µg/mL (≈ 10.2 µM)	8 µg/mL (≈ 20.4 µM)	8 µg/mL (≈ 20.4 µM)	8 µg/mL (≈ 20.4 µM)	4 µg/mL (≈ 10.2 µM)	2 µg/mL (≈ 5.11 µM)	2 µg/mL (≈ 5.11 µM)	8 µg/mL (≈ 20.4 µM)	4 µg/mL (≈ 10.2 µM)	4 µg/mL (≈ 10.2 µM)	4 µg/mL (≈ 10.2 µM)	4 µg/mL (≈ 10.2 µM)	16 µg/mL (≈ 40.9 µM)	16 µg/mL (≈ 40.9 µM)	16 µg/mL (≈ 40.9 µM)	4 µg/mL (≈ 10.2 µM)	16 µg/mL (≈ 40.9 µM)	8 µg/mL (≈ 20.4 µM)	Minimum inhibition concentration (MIC) (MRSA C5100): 8 µg/mL (≈ 20.4 µM)
CCOC(=O)C(C#N)=C1CCN(c2ccc(N3C[C@H](CNC(C)=O)OC3=O)cc2F)CC1 [Compound 7, N-[[(5S)-3-[3-fluoro-4-((4-(1-ethoxycarbonyl-1-cyano)-methylidene)piperidinyl)phenyl]-2-oxo-5-oxazolidinyl]methyl]acetamide]	2 µg/mL (≈ 4.5 µM)	1 µg/mL (≈ 2.25 µM)	4 µg/mL (≈ 9 µM)	4 µg/mL (≈ 9 µM)	4 µg/mL (≈ 9 µM)	4 µg/mL (≈ 9 µM)	4 µg/mL (≈ 9 µM)	1 µg/mL (≈ 2.25 µM)	1 µg/mL (≈ 2.25 µM)	4 µg/mL (≈ 9 µM)	2 µg/mL (≈ 4.5 µM)	2 µg/mL (≈ 4.5 µM)	2 µg/mL (≈ 4.5 µM)	2 µg/mL (≈ 4.5 µM)	4 µg/mL (≈ 9 µM)	4 µg/mL (≈ 9 µM)	4 µg/mL (≈ 9 µM)	4 µg/mL (≈ 9 µM)	4 µg/mL (≈ 9 µM)	4 µg/mL (≈ 9 µM)	Minimum inhibition concentration (MIC) (MRSA C5100): 4 µg/mL (≈ 9 µM)
CC(=S)NC[C@H]1CN(c2ccc(N3CCC(=CC#N)CC3)c(F)c2)C(=O)O1 [Compound 26, N-[[(5S)-3-[3-fluoro-4-(4-(cyanomethylidene)piperidinyl)-phenyl]-2-oxo-5-oxazolidinyl]methyl]thioacetamide]	1 µg/mL (≈ 2.57 µM)	0.25 µg/mL (≈ 0.644 µM)	1 µg/mL (≈ 2.57 µM)	2 µg/mL (≈ 5.15 µM)	1 µg/mL (≈ 2.57 µM)	0.25 µg/mL (≈ 0.644 µM)	1 µg/mL (≈ 2.57 µM)	0.5 µg/mL (≈ 1.29 µM)	0.5 µg/mL (≈ 1.29 µM)	2 µg/mL (≈ 5.15 µM)	0.5 µg/mL (≈ 1.29 µM)	1 µg/mL (≈ 2.57 µM)	0.5 µg/mL (≈ 1.29 µM)	0.5 µg/mL (≈ 1.29 µM)	2 µg/mL (≈ 5.15 µM)	2 µg/mL (≈ 5.15 µM)	2 µg/mL (≈ 5.15 µM)	2 µg/mL (≈ 5.15 µM)	2 µg/mL (≈ 5.15 µM)	2 µg/mL (≈ 5.15 µM)	Minimum inhibition concentration (MIC) (MRSA C5100): 1 µg/mL (≈ 2.57 µM)
CCOC(=O)C(C)=C1CCN(c2ccc(N3C[C@H](CNC(C)=O)OC3=O)cc2F)CC1 [Compound 13, N-[[(5S)-3-[3-fluoro-4-(4-(1-ethoxycarbonylethylidene)-piperidinyl)phenyl]-2-oxo-5-oxazolidinyl]methyl]acetamide]	8 µg/mL (≈ 18.5 µM)	16 µg/mL (≈ 36.9 µM)	8 µg/mL (≈ 18.5 µM)	16 µg/mL (≈ 36.9 µM)	8 µg/mL (≈ 18.5 µM)	4 µg/mL (≈ 9.23 µM)	16 µg/mL (≈ 36.9 µM)	8 µg/mL (≈ 18.5 µM)	4 µg/mL (≈ 9.23 µM)	16 µg/mL (≈ 36.9 µM)	8 µg/mL (≈ 18.5 µM)	16 µg/mL (≈ 36.9 µM)	8 µg/mL (≈ 18.5 µM)	1 µg/mL (≈ 2.31 µM)	16 µg/mL (≈ 36.9 µM)	8 µg/mL (≈ 18.5 µM)	16 µg/mL (≈ 36.9 µM)	8 µg/mL (≈ 18.5 µM)	16 µg/mL (≈ 36.9 µM)	8 µg/mL (≈ 18.5 µM)	Minimum inhibition concentration (MIC) (MRSA C5100): 8 µg/mL (≈ 18.5 µM)
N-[[(5S)-3-[3-fluoro-4-(4-dicyanomethylidenepiperidinyl) phenyl]-2-oxo-5-oxazolidinyl]methyl]acetamide [Compound 6]	2 µg/mL	1 µg/mL	4 µg/mL	4 µg/mL	4 µg/mL	4 µg/mL	4 µg/mL	1 µg/mL	1 µg/mL	2 µg/mL	2 µg/mL	2 µg/mL	2 µg/mL	4 µg/mL	4 µg/mL	4 µg/mL	4 µg/mL	2 µg/mL	4 µg/mL	4 µg/mL	Minimum inhibition concentration (MIC) (MRSA C5100): 4 µg/mL
